The supplement of paper PMC13380429

Tests used:
Conditions in all cases: 72 h
Caco-2 [1] = assay: cell viability relative to DMSO; higher = less toxic
Calu-3 [2] = assay: as above
HepG2 [3] = assay: as above
U2OS [4] = assay: as above
Vero E6 [5] = assay: as above
Caco-2 [6] = assay: relative viability EC50 (midpoint between 100% and the lowest measured viability); higher = less toxic
Calu-3 [7] = assay: as above
HepG2 [8] = assay: as above
U2OS [9] = assay: as above
Vero E6 [10] = assay: as above
Caco-2 [11] = assay: drug sensitivity score (DSS) for viability; higher = more toxic; extreme values may be limits of the assay
Calu-3 [12] = assay: as above
HepG2 [13] = assay: as above
U2OS [14] = assay: as above
Vero E6 [15] = assay: as above

SMILES	cell viability (Caco-2 [1]; 1 nM) [%]	cell viability (Caco-2 [1]; 10 nM) [%]	cell viability (Caco-2 [1]; 100 nM) [%]	cell viability (Caco-2 [1]; 1000 nM) [%]	cell viability (Caco-2 [1]; 10000 nM) [%]	cell viability (Calu-3 [2]; 1 nM) [%]	cell viability (Calu-3 [2]; 10 nM) [%]	cell viability (Calu-3 [2]; 100 nM) [%]	cell viability (Calu-3 [2]; 1000 nM) [%]	cell viability (Calu-3 [2]; 10000 nM) [%]	cell viability (HepG2 [3]; 1 nM) [%]	cell viability (HepG2 [3]; 10 nM) [%]	cell viability (HepG2 [3]; 100 nM) [%]	cell viability (HepG2 [3]; 1000 nM) [%]	cell viability (HepG2 [3]; 10000 nM) [%]	cell viability (U2OS [4]; 1 nM) [%]	cell viability (U2OS [4]; 10 nM) [%]	cell viability (U2OS [4]; 100 nM) [%]	cell viability (U2OS [4]; 1000 nM) [%]	cell viability (U2OS [4]; 10000 nM) [%]	cell viability (Vero E6 [5]; 1 nM) [%]	cell viability (Vero E6 [5]; 10 nM) [%]	cell viability (Vero E6 [5]; 100 nM) [%]	cell viability (Vero E6 [5]; 1000 nM) [%]	cell viability (Vero E6 [5]; 10000 nM) [%]	relative viability EC50 (Caco-2 [6]) [µM]	relative viability EC50 (Calu-3 [7]) [µM]	relative viability EC50 (HepG2 [8]) [µM]	relative viability EC50 (U2OS [9]) [µM]	relative viability EC50 (Vero E6 [10]) [µM]	drug sensitivity score (Caco-2 [11])	drug sensitivity score (Calu-3 [12])	drug sensitivity score (HepG2 [13])	drug sensitivity score (U2OS [14])	drug sensitivity score (Vero E6 [15])
NC[C@@H]1CC[C@@H](N)[C@@H](O[C@H]2[C@H](O)[C@@H](O[C@H]3O[C@H](CO)[C@@H](O)[C@H](N)[C@H]3O)[C@H](N)C[C@@H]2N)O1 [dibekacin]	96	94.4	101	93.5	106	101	91.9	114	101	95	96.5	101	89.1	102	94.5	104	97.9	101	98	104	103	103	98.1	101	101	> 10	> 10	> 10	> 10	> 10	0	0	0	0	0
CC(=O)OCC(=O)[C@@]1(OC(C)=O)[C@@H](C)C[C@H]2[C@@H]3C[C@H](F)C4=CC(=O)C=C[C@]4(C)[C@@]3(F)[C@@H](O)C[C@@]21C [diflorasone-diacetate]	110	106	99	98.4	87.6	105	95.9	93.1	100	101	82.6	90.4	87.9	97.8	95.2	102	96.9	95.9	96.5	89.9	104	106	105	90.7	98.1	> 10	> 10	> 10	> 10	> 10	0.2	0	0	0	0
CCCCCCCCCCCC[N+](C)(C)CCOc1ccccc1 [domiphen]	85.6	99.3	95	101	11.1	90.9	92.7	91.5	102	26.8	103	95.3	100	94	30	93.6	102	94.9	95.7	9.5	100	98.8	96.6	93	83.8	3.22	3.31	2.46	2.8	> 10	4.9	3.9	4.8	5.6	0.5
COc1ccccc1N1CCN(CC(O)COc2cc(OC)c(OC)c(OC)c2)CC1 (stereo not given) [enciprazine]	104	97.9	89.3	93.8	99.8	101	106	100	98.1	105	98.3	99.9	91.4	94.2	96	94.9	98.2	95.1	96	94.9	100	101	101	99.1	99.4	> 10	> 10	> 10	> 10	> 10	0	0	0	0	0
CCCCCCCCCCCCCCCCCCCCCC(=O)Nc1ccn([C@@H]2O[C@H](CO)[C@@H](O)[C@@H]2O)c(=O)n1 [enocitabine]	78.8	67.8	90.5	114	92.3	99.2	99	104	94.9	95.7	98	102	100	112	79.2	94.1	95.2	95.4	93.6	102	95.6	97.2	91.9	94	107	> 10	> 10	> 10	> 10	> 10	0	0	0.4	0	0
CCn1cnc(C(=O)NC)c1C(=O)NC [ethimizol]	97.5	104	91.5	99.1	92.3	102	92.4	91.3	102	99.1	89.3	114	103	104	111	98.6	102	98.1	98.2	94.9	96.4	96.2	96.4	99.9	100	> 10	> 10	> 10	> 10	> 10	0	0	0	0	0
Cc1cc(C#N)cc(C)c1Oc1nc(Nc2ccc(C#N)cc2)nc(N)c1Br [etravirine]	94	93.7	97.2	105	102	94.3	95.8	95.7	96.5	103	110	101	92.3	99.8	102	103	95.2	97.2	95.2	95.3	97.5	97.9	95.7	105	107	> 10	> 10	> 10	> 10	> 10	0	0	0	0	0
N#Cc1ccc(C2CCCc3cncn32)cc1 (stereo not given) [fadrozole]	77.9	87.4	89.6	92.6	82.3	91.1	103	96.6	98	95.3	96.9	100	91.6	103	96.2	96.2	91.4	96.4	93.4	97.4	95.4	95.6	89.1	94.9	95.2	> 10	> 10	> 10	> 10	> 10	0	0	0	0	0
Nc1nc(=O)c2nc(CNc3ccc(C(=O)N[C@@H](CCC(=O)O)C(=O)O)cc3)cnc2[nH]1 [folic-acid]	89.2	103	101	95.3	90.7	93.5	102	88.1	106	97.8	106	101	99.8	97.2	99.4	97.7	101	97	99.4	96.4	99.9	102	97	101	92.8	> 10	> 10	> 10	> 10	> 10	0	0	0	0	0
O=C(COP(=O)(O)O)[C@@H](O)[C@H](O)[C@H](O)COP(=O)(O)O [fosfructose]	107	118	91.9	94.7	93.5	101	101	99.9	98.8	97.2	108	83	73.1	99.1	95.4	97.9	106	106	105	99.3	97.6	98.1	102	102	94.7	> 10	> 10	> 10	> 10	> 10	0	0	0	0	0
Cc1ccc(C)c(OCCCC(C)(C)C(=O)O)c1 [gemfibrozil]	102	107	106	93.8	101	104	104	109	93.1	105	98.2	99.9	102	106	104	104	101	104	99.1	102	98.4	101	96.5	100	95.9	> 10	> 10	> 10	> 10	> 10	0	0	0	0	0
O=C(O)Cc1cccnc1C(=O)O [homoquinolinic-acid]	99.5	104	101	96.3	105	92.7	89.2	97.4	95.6	111	104	93.8	95.3	94	93.9	97.4	100	100	99.6	99.7	105	106	102	103	94	> 10	> 10	> 10	> 10	> 10	0	0	0	0	0
C[C@]12CCC(=O)C=C1CC[C@@H]1[C@@H]2[C@@H](O)C[C@@]2(C)[C@H]1CC[C@]2(O)C(=O)COC(=O)CCC(=O)O [hydrocortisone-hemisuccinate]	104	98.7	101	106	111	93.6	100	101	101	95.9	92.9	113	108	96.1	92.1	103	101	104	100	99.6	96.3	96.8	98.3	93.5	102	> 10	> 10	> 10	> 10	> 10	0	0	0	0	0
NS(=O)(=O)c1cc2c(cc1C(F)(F)F)NCNS2(=O)=O [hydroflumethiazide]	99.5	99.1	89.7	98.8	92.2	97.1	101	96.7	103	105	104	103	114	99.3	96.8	102	101	95.3	101	98.2	105	92.2	98.5	97.2	107	> 10	> 10	> 10	> 10	> 10	0	0	0	0	0
